How the values were obtained:
Assay type in all cases: in vivo
New Guinea Impatiens = test: Shelf life after low-concentration spray (Example 9); conditions: EthylBloc powder in distilled water
From the text: (§1) Spray liquid was EthylBloc™ powder (contains 0.14% by weight 1-MCP, plus alpha-cyclodextrin and dextrose, obtained from Floralife Inc.) in distilled water. The shelf lives of sprayed and non-sprayed control plants were observed, with the following results: […]

Impatiens = test: as above; conditions: EthylBloc powder in distilled water
From the text: as §1

Geranium = test: as above; conditions: EthylBloc powder in distilled water
From the text: as §1

Myosotis = test: Nursery plants sprayed, boxed and shipped, quality rating (Example 10); conditions: 50 mg/L of 1-MCP; after 5 days shipping; 0 (poor) to 2 (good)
Procedure: (§2) A range of nursery plants that often show quality problems during shipping were chosen including Datura (tropical), Mini-rose, Delphinium (sun perennial), Verbena (sun perennial), Asclepias (sun perennial), Delosperma (groundcover), Myosotis (shade perennial) and Primula (shade perennial).
(§3) Spray liquid had 50 mg/L of 1-MCP. Sprayed and unsprayed control plants, all of which were blooming, were packed in boxes according to standard procedures and shipped under commercial conditions. After 5 days plants were unpacked and given a quality rating, from 0 (poor) to 2 (good).

Mini-rose = test: as above; conditions: 50 mg/L of 1-MCP; after 5 days shipping; 0 (poor) to 2 (good)
Procedure: as §2, §3

Datura (tropical) = test: as above; conditions: 50 mg/L of 1-MCP; after 5 days shipping; 0 (poor) to 2 (good)
Procedure: as §2, §3

Primula = test: as above; conditions: 50 mg/L of 1-MCP; after 5 days shipping; 0 (poor) to 2 (good)
Procedure: as §2, §3

Asclepias = test: as above; conditions: 50 mg/L of 1-MCP; after 5 days shipping; 0 (poor) to 2 (good)
Procedure: as §2, §3

Delosperma = test: as above; conditions: 50 mg/L of 1-MCP; after 5 days shipping; 0 (poor) to 2 (good)
Procedure: as §2, §3

Delphinium = test: as above; conditions: 50 mg/L of 1-MCP; after 5 days shipping; 0 (poor) to 2 (good)
Procedure: as §2, §3

Verbena = test: as above; conditions: 50 mg/L of 1-MCP; after 5 days shipping; 0 (poor) to 2 (good)
Procedure: as §2, §3

## CC1=CC1 [1-MCP, 1-methylcyclopropene]
New Guinea Impatiens; 1-MCP 0.03 mg/L
  Shelf Life: 4 days
New Guinea Impatiens; 1-MCP 0.32 mg/L
  Shelf Life: 7 days
Impatiens; 1-MCP 0.03 mg/L
  Shelf Life: 3 days
Impatiens; 1-MCP 0.32 mg/L
  Shelf Life: 5 days
Geranium; 1-MCP 0.03 mg/L
  Shelf Life: 3 days
Geranium; 1-MCP 0.32 mg/L
  Shelf Life: 4 days
Myosotis
  Quality Rating, Sprayed: 0.5
Mini-rose
  Quality Rating, Sprayed: 1.8
Datura (tropical)
  Quality Rating, Sprayed: 2.0
Primula
  Quality Rating, Sprayed: 1.0
Asclepias
  Quality Rating, Sprayed: 1.5
Delosperma
  Quality Rating, Sprayed: 1.3
Delphinium
  Quality Rating, Sprayed: 1.0
Verbena
  Quality Rating, Sprayed: 0.5

From patent US20110034335A1, “Treatment of Ornamental Plants” (priority 2009, published 2011)
